Reference: patent publication US20250255795A1, “CYCLIC PEROXIDE, OXIDATION REACTION PRODUCT, METHOD FOR PRODUCING OXIDATION REACTION PRODUCT, AND APPLICATIONS OF THESE” (MEDIPLUS PHARMA, INC., priority 2021, published 2025)
Each block holds one compound with its values, some of them ahead of it.

Key:
[1] = positive control, known activity; cited from earlier work
[2] = biological target: T1, TRPM2 (Homo sapiens, UniProt O94759); test: TRP channel activation, intracellular Ca2+ in TRPM2 (expressing cells); format: cell-based
T1 construct: expressed in transfected cells
Excerpt: The TLC1 spot product produced in “(1) Production of Oxidation Reaction Product Containing Cyclic Peroxide According to the First Mode of the Present Invention” was directly used without separation (purification) to examine the TRP channel activation. Hereinafter, […]. Hereinafter, “OG” indicates a product formed by ozone-oxidizing glycerin with an oxygen generator (ozonized glycerin). In production of “OG”, the ozone oxidation of glycerin with an oxygen generator was performed with use of a gas having an ozone concentration of approximately 37000 ppm, which had been obtained through a process in which a high concentration of oxygen (oxygen concentration: 70% or more) was given to air with an oxygen generator and the oxygen was ozonized via an ozone generator, under Conditions A below. Hereinafter, “LOG” indicates a product formed by further oxidizing “OG”. Production of “LOG” by oxidation of “OG” was performed with use of a gas having an ozone concentration of approximately 37000 ppm, which had been obtained through a process in which oxygen from an oxygen tank (oxygen concentration: 99% or more) was ozonized via an ozone generator, under Conditions B below. […]

[3] = test system: melanin in skin; test: whitening action, melanin measurement (Mexameter MX18) on half-face application; format: in vivo, human; conditions: inferred from loss of activity after heat treatment of ozonized glycerin
Experimental: Forty-eight healthy individuals (females, 41 years or older and 59 years or younger) participated as test subjects. The test subjects were well informed with description documents (including a consent form) in advance, and a written consent was acquired from each test subject.
For examination of the whitening action, a test product of Example 2-1A, a test product of Example 2-1B, a test product of Reference Example 2-1A, and a test product of Reference Example 2-1B were prepared.
The test subjects were divided into two groups below (24 test subjects in each group). Each test subject took two pushes (approximately 1 ml) of a test product on the hands and applied the test product to a specified half of the face after every face washing performed twice per day (morning and night). […]
Each test subject was subjected to quintuple melanin measurement for freckle sites in the left and right cheeks on the day of initiation of application of test products (week 0) and 4 weeks and 8 weeks after the initiation of application. […] In addition, the changes of melanin measurement values from those at the initiation of the test were determined. Statistical test was carried out with Student t-test, and cases with p<0.05 were determined to be significant differences. […]

[4] = general statement; cited from earlier work

T1 sequence (O94759 whole entry): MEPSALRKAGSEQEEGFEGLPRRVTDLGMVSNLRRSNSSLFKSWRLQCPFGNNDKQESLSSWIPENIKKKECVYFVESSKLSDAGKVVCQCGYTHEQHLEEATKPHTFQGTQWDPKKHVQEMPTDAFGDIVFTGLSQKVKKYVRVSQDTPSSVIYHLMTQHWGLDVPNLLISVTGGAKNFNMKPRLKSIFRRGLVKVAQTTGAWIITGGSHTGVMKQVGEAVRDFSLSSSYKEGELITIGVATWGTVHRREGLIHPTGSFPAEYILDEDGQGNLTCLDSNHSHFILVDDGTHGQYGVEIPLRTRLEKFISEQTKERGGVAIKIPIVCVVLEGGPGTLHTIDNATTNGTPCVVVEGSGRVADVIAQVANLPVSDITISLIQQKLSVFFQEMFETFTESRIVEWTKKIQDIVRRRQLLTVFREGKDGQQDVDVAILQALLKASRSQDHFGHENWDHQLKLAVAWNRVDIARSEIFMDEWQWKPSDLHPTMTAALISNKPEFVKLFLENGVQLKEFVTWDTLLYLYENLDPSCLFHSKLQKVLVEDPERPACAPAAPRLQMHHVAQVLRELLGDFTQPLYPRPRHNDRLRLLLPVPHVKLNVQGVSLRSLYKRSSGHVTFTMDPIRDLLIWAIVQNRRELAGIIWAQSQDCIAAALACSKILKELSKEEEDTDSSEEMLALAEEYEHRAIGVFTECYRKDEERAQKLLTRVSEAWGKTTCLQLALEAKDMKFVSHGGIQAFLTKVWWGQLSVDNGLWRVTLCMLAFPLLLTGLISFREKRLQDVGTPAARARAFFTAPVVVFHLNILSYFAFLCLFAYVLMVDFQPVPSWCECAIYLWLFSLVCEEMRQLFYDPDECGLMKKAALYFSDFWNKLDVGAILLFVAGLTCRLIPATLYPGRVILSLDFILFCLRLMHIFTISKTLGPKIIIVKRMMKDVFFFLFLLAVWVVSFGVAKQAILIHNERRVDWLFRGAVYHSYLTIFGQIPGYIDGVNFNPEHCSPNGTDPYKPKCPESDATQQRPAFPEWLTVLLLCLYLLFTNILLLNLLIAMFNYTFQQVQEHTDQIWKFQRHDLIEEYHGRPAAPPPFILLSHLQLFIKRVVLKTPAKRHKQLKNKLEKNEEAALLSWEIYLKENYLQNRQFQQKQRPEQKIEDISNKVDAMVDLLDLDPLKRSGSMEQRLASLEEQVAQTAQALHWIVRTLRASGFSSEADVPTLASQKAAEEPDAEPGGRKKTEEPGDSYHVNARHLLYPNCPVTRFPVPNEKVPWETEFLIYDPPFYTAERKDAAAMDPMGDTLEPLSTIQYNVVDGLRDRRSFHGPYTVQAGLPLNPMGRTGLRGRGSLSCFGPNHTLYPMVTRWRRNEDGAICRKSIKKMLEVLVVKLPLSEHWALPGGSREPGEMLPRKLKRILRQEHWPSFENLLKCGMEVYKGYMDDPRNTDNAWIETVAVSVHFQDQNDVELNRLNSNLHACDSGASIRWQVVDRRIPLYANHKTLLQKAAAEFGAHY

Structure (SMILES): O=C(C[n+]1ccsc1)c1ccccc1.[Br-] [PTB, N-phenacylthiazolium bromide]
cleavage activity to crosslinking structures formed by AGEs [1]: known to have cleavage activity to crosslinking structures formed by AGEs

TRP channel activation (net intracellular Ca2+ increase rates) ([2]; 10% by mass aqueous solution, FIG. 1-24): high TRP channel activation
Structure (SMILES): OCC(O)CO [G, glycerin]
TRP channel activation (net intracellular Ca2+ increase rates) ([2]; concentrations (% by mass) of the aqueous solutions changed, FIG. 1-25): higher TRP channel activation at high concentrations

Structure (SMILES): OCC(O)C1OOCOCC1O (single isomer, unassigned) [compound of the chemical formula (1)]
whitening action (inferred active ingredient) [3]: active ingredient responsible for the whitening action

Structure (SMILES): C[C@@H]1CC[C@H]2[C@@H](C)C(=O)O[C@@H]3O[C@@]4(C)CC[C@@H]1[C@]32OO4 [artemisinin]
water solubility and liposolubility [4]: neither water-soluble nor liposoluble
